{"source": "patent US9701709B2", "about": "(REATA PHARMACEUTICALS, INC., priority 2012, dated 2017)", "key": {"NQO1 activity": {"tested_on": "NQO1 activity", "assay": "NQO1 activity induction in mouse liver, lung, and kidney after PO QD×3", "type": "in vivo", "settings": "mice PO QD×3 25 mg/kg, 6 h after last dose", "procedure": "FIG. 53—NQO1 activity induction in mouse liver, lung, and kidney by 63415. Mice were dosed PO QD×3 with 25 mg/kg. Tissues were collected 6 h after the last dose, and analysis of NQO1 activity was performed."}, "[1]": {"tested_on": "Alt1, Alt2, Ast1, Ast2 mRNA in AML-12 hepatocytes", "assay": "Transaminase gene mRNA (qPCR) in AML-12", "type": "cell-based, mouse", "settings": "250 nM or 500 nM, 18 h", "procedure": "One hypothesis for this effect is that AIMs directly or indirectly increase transaminase gene expression in the absence of cellular toxicity. […] AML-12 cells were plated in 6-well culture dishes at 3×10^5 cells per well using 2 mL of media per well. […] Each well received 0.1% DMSO. Three independent replicate experiments were performed. Following treatment, media was removed and cells were harvested using RLT buffer (Qiagen). Lysates were homogenized using QIAShredder columns (Qiagen, Catalog #79654) and RNA was isolated using RNeasy Mini kits (Qiagen, Catalog #74104). For reverse transcription, RNA (1 μg) was combined with Oligo(dT)12-18 primer and H2O in a final volume of 23.25 μL. The mixture was heated to 70° C. for 10 min and then placed on ice. A master mix containing 8 μL 5×1st strand buffer, 2 μL 1 mg/ml BSA, 2 μL 20 mM DTT, 4 μL 5 mM dNTP mix, 0.25 μL RNaseOUTTM and 0.5 μL […]® II reverse transcriptase was added to the RNA mixture and incubated at 42° C. for 1 h. The reaction was inactivated by heating to 70° C. for 10 min. The reaction mixture was diluted 1:3 with H2O prior to use in qPCR. 2.5 μL of the diluted reverse transcription reaction was combined with one set of PCR primers (0.36 μM final concentration), 2× iQTM SYBR® Green Supermix (Bio-Rad, Catalog #170-8885) and H2O to a final volume of 20 pt. Sequences for PCR primers are as follows: […] All primers had previously been validated for specificity and amplification efficiency. cDNA was amplified using the following cycle conditions: (95° C. for 3 min, 44 cycles of 95° C. for 30 sec, 60° C. for 15 sec, 72° C. for 15 sec, followed by a melt curve of 55° C. to 95° C. in increments of 0.5° C.). The relative abundance of each target gene was determined using the comparative CT method (ΔΔCT). PCR reactions were run in triplicate wells for each sample."}, "[2]": {"assay": "Plasma protein binding (ultracentrifugation), minipig"}, "[3]": {"tested_on": "bleomycin-induced pulmonary fibrosis"}, "[4]": {"tested_on": "aqueous humor protein after paracentesis", "assay": "Ocular inflammation (paracentesis) in rabbits", "type": "in vivo, rabbit", "settings": "0.01% RTA 408 in the formulation, instillation", "procedure": "Each rabbit was given three instillations within 60 min before induction of paracentesis and two instillations within 30 min after induction of paracentesis. Each instillation was 50 μL and given in both eyes. Aqueous humor for 6 animals per time-point was collected 30 min and again 2 h after induction of paracentesis. The amount of inflammation was determined by protein concentration in the aqueous humor."}, "[5]": {"settings": "3 and 10 mg/kg daily for 28 days"}}, "note": "Read-outs that look alike come from different tables or passages of the source.", "data": [{"smiles": "CC1(C)CC[C@]2(NC(=O)C(C)(F)F)CC[C@]3(C)[C@H](C(=O)C=C4[C@@]5(C)C=C(C#N)C(=O)C(C)(C)[C@@H]5CC[C@]43C)[C@@H]2C1", "note": "[RTA 408, N-((4aS,6aR,6bS,8aR,12aS,14aR,14bS)-11-cyano-2,2,6a,6b,9,9,12a-heptamethyl-10,14-dioxo-1,2,3,4,4a,5,6,6a,6b,7,8,8a,9,10,12a,14,14a,14b-octadecahydropicen-4a-yl)-2,2-difluoropropanamide]", "values": [{"measurement": "NQO1 activity induction, Kidney", "setting": "NQO1 activity", "result": 10.9}, {"measurement": "NQO1 activity induction, Liver", "setting": "NQO1 activity", "result": 10.9}, {"measurement": "NQO1 activity induction, Lung", "setting": "NQO1 activity", "result": 1.75}, {"measurement": "mRNA levels of alanine transaminase 1 (Alt1 or Gpt1)", "setting": "[1]", "result": "increased mRNA levels of alanine transaminase 1"}, {"measurement": "mRNA levels of alanine transaminase 2 (Alt2 or Gpt2)", "setting": "[1]", "result": "no effect"}, {"measurement": "mRNA levels of aspartate transaminase 1 (Ast1 or Got1)", "setting": "[1]", "result": "increased mRNA levels"}, {"measurement": "mRNA levels of aspartate transaminase 2 (Ast2 or Got2)", "setting": "[1]", "result": "reduced mRNA levels"}, {"measurement": "fraction unbound", "setting": "[2]", "result": "< 0.01"}, {"measurement": "Animals with Mild trichrome staining intensity", "setting": "[3]; 3 mg/kg", "result": 0}, {"measurement": "Animals with Minimal trichrome staining intensity", "setting": "[3]; 3 mg/kg", "result": 0}, {"measurement": "Animals with Moderate trichrome staining intensity", "setting": "[3]; 3 mg/kg", "result": 7}, {"measurement": "Animals with Mild trichrome staining intensity", "setting": "[3]; 10 mg/kg", "result": 4}, {"measurement": "Animals with Minimal trichrome staining intensity", "setting": "[3]; 10 mg/kg", "result": 3}, {"measurement": "Animals with Moderate trichrome staining intensity", "setting": "[3]; 10 mg/kg", "result": 1}, {"measurement": "Tolerability of 30-mg/kg dose (stopped on day 14)", "setting": "[3]; 30 mg/kg daily oral gavage", "result": "excessive dehydration and diarrhea"}, {"measurement": "PMN cell infiltration into the lungs", "setting": "[3]; [5]", "result": "significantly suppressed polymorphonuclear (PMN) cell infiltration into the lungs"}, {"measurement": "Reduction in hydroxyproline deposition", "setting": "[3]; [5]", "result": "10%-20%"}, {"measurement": "Lung Nrf2 target enzyme activity", "setting": "[3]; rats exposed to bleomycin", "result": "significantly and dose-dependently increased NQO1, Txnrd, Gsr, and Gst enzyme activity"}, {"measurement": "Aqueous humor protein", "setting": "[4]", "result": "reduction in aqueous humor protein similar to that of the highest concentration of any of the other reference compounds"}]}]}
